Data published in article PMC4992173, “Divergent synthesis and identification of the cellular targets of deoxyelephantopins” (Nature Communications, 2016).

Assays:
[1] = molecular target: T1, Cystatin-B (CSTB) (Homo sapiens, UniProt P04080); assay: In situ competitive profiling in live MCF7 cells (LFQ): CSTB; assay type: cell-based; conditions: protein CSTB, 4 h, then 10 µM 24c, n=4
T1 construct: endogenous in cells; host or cells: MCF7
Text: (§1) In our efforts to determine the direct molecular targets of deoxyelephantopin we first performed a gel-based competitive in situ proteomic profiling assay[41] […] While the greater conformational flexibility of probe 24c could potentially lead to more promiscuous target engagement relatively to deoxyelephantopin, it was favoured based on the fact that an alkyne moiety appended to the rigid scaffold of deoxyelephantopin may hinder some of its interactions. MCF7 cells were pretreated with various concentrations of deoxyelephantopin for 4 h, harvested, lysed and the lysates were treated with the fluorogenic probe 24c-Cy3 (10 μM; Supplementary Fig. 10). […] Furthermore, cells were pretreated with 20 μM concentration of deoxyelephantopin or 24c and the proteomic profiles were compared (Fig. 6b, Supplementary Fig. 11). Multiple bands were detected that were equally competed by both DEP and 24c, thus again confirming that 24c can be used as an acceptable clickable analogue of deoxyelephantopin in pulldown assays. Having established the optimal labelling conditions by SDS–PAGE, we next carried out a mass spectrometry-based competitive profiling assay[42] coupled with the method of stable isotope labelling of amino acids in culture (SILAC)[43]. […]
(§2) Figure 6 Proteome-wide identification of deoxyelephantopin targets. […] Quantification was performed using label-free quantification (LFQ) method (n=4). […]

[2] = molecular target: T2, Src substrate cortactin (CTTN) (Homo sapiens, UniProt Q14247); assay: In situ competitive profiling in live MCF7 cells (LFQ): CTTN; assay type: cell-based; conditions: protein CTTN, 4 h, then 10 µM 24c, n=4
T2 construct: endogenous in cells; host or cells: MCF7
Text: as §1, §2

T1 sequence (P04080 whole entry): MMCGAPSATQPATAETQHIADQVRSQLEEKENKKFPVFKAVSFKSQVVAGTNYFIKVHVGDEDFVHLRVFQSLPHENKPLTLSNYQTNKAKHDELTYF
T2 sequence (Q14247 whole entry): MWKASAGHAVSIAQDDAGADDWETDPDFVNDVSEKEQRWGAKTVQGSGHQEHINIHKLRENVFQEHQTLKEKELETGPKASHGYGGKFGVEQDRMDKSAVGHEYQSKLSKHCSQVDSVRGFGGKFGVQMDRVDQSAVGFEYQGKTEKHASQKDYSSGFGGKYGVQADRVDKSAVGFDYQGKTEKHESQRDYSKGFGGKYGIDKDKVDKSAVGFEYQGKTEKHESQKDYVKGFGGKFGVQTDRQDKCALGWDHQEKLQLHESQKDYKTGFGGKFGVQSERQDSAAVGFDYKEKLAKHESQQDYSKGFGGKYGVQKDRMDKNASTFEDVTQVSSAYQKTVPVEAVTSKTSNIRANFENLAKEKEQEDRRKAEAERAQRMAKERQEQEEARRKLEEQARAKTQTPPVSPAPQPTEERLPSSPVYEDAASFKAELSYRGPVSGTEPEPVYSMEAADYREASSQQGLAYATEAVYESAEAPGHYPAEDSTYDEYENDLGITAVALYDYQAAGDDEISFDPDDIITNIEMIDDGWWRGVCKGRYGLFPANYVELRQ

Compound: C=C(C)C(=O)O[C@H]1CC2=C[C@@H](C/C(C)=C/[C@H]3OC(=O)C(=C)[C@H]13)OC2=O [deoxyelephantopin]
- LFQ ratio 20 µM Deoxyelephantopin/DMSO with 24c [1]: 0.28
- LFQ ratio 20 µM Deoxyelephantopin/DMSO with 24c [2]: 0.22
